± gives the standard deviation of the averaged measurements.
Test system: HepaRG
Assay: LDH release cytotoxicity, % of total lysis control; higher = more cytotoxic
Settings: 48 h
Procedure, shortened: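 Eight-point half-log series of test chemicals, the highest at 100 µM, were given in duplicate for 48 h to single-lot HepaRG cells on collagen I-coated 96-well plates in serum-free induction medium with 0.5% DMSO. A Tecan Safire read resorufin fluorescence from CytoTox-ONE as a measure of LDH in 50 µL spent medium, with 0.1% Triton X in total lysis wells. Percent cytotoxicity was normalized to on-plate vehicle and total lysis controls and averaged over the duplicates.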

Row | SMILES | LDH release cytotoxicity (0.03162 µM) [%] | LDH release cytotoxicity (0.1 µM) [%] | LDH release cytotoxicity (0.3162278 µM) [%] | LDH release cytotoxicity (1 µM) [%] | LDH release cytotoxicity (3.16228 µM) [%] | LDH release cytotoxicity (10 µM) [%] | LDH release cytotoxicity (31.6228 µM) [%] | LDH release cytotoxicity (100 µM) [%] | other results
1 | COc1ccccc1N [2-Anisidine] | -1.27 ± 0.34 | -0.978 ± 0.2 | -0.111 ± 0.059 | -0.865 ± 1.6 | -1.04 ± 0.64 | 0.222 ± 0.33 | 0.835 ± 0.33 | 4.39 ± 0.47 | –
2 | CCC(C)N=O (configuration not stated) [2-Butanone oxime] | – | – | – | – | – | – | – | – | LDH release cytotoxicity (0.02261 µM): 0.0542 ± 0.017%; LDH release cytotoxicity (0.0715 µM): -0.457 ± 0.27%; LDH release cytotoxicity (0.2261029 µM): -1.06 ± 1%; LDH release cytotoxicity (0.715 µM): -1.57 ± 0.89%; LDH release cytotoxicity (2.26103 µM): -1.04 ± 0.2%; LDH release cytotoxicity (7.15 µM): -1.22 ± 0.13%; LDH release cytotoxicity (22.6103 µM): -1.08 ± 0.69%; LDH release cytotoxicity (71.5 µM): 0.052 ± 1%
3 | CCCCOCCO [2-Butoxyethanol] | -2.12 ± 0.86 | -0.886 ± 1 | -1.1 ± 1.1 | -2.21 ± 0.073 | -1.06 ± 0.48 | -0.332 ± 0.52 | -0.824 ± 0.64 | 1.02 ± 0.18 | –
4 | O=C(CCl)c1ccccc1 [2-Chloroacetophenone] | -1 ± 0.077 | -0.706 ± 0.44 | 0.0478 ± 0.81 | -0.336 ± 0.2 | -0.414 ± 0.23 | 0.0717 ± 0.49 | 1.4 ± 0.058 | 17.7 ± 0.94 | –
5 | OCCCl [2-Chloroethanol] | -1.15 ± 0.41 | -1.03 ± 0.86 | -1.59 ± 0.33 | -1.39 ± 0.77 | -1.15 ± 0.39 | -0.492 ± 0.48 | -0.514 ± 0.24 | 4.05 ± 0.92 | –
6 | Oc1ccccc1Cl [2-Chlorophenol] | -2.95 ± 2.4 | -4.22 ± 0.094 | -4.63 ± 0.13 | -4.14 ± 0.96 | -3.68 ± 0.21 | -3.65 ± 0.22 | -2.05 ± 0.13 | 1.5 ± 0.076 | –
7 | Cc1ccccc1Cl [2-Chlorotoluene] | -1.99 ± 0.36 | -1.94 ± 0.73 | -2.27 ± 0.5 | -1.84 ± 0.56 | -2.6 ± 0.59 | -1.26 ± 0.43 | -0.387 ± 0.48 | 0.838 ± 0.49 | –
8 | CCOCCO [2-Ethoxyethanol] | -0.38 ± 0.81 | 0.655 ± 1 | -0.174 ± 0.26 | 0.482 ± 0.056 | 0.0895 ± 0.63 | 0.267 ± 1.2 | 0.257 ± 0.32 | 1.46 ± 0.97 | –
9 | CCCCC(CC)CO (configuration not stated) [2-Ethyl-1-hexanol] | – | – | – | – | – | – | – | – | LDH release cytotoxicity (0.0320971 µM): -0.547 ± 0.26%; LDH release cytotoxicity (0.1015 µM): -0.771 ± 0.15%; LDH release cytotoxicity (0.320971 µM): -0.413 ± 0.19%; LDH release cytotoxicity (1.015 µM): -0.597 ± 0.57%; LDH release cytotoxicity (3.2097118 µM): 0.185 ± 0.13%; LDH release cytotoxicity (10.15 µM): 0.421 ± 0.39%; LDH release cytotoxicity (32.0971 µM): 0.242 ± 0.43%; LDH release cytotoxicity (101.5 µM): 0.842 ± 0.13%
10 | CCCCC(CC)C(=O)O (configuration not stated) [2-Ethylhexanoic acid] | – | – | – | – | – | – | – | – | LDH release cytotoxicity (0.0327296 µM): -0.279 ± 0.2%; LDH release cytotoxicity (0.1035 µM): -1.03 ± 0.49%; LDH release cytotoxicity (0.327296 µM): -1.23 ± 0.14%; LDH release cytotoxicity (1.035 µM): -1.42 ± 0.82%; LDH release cytotoxicity (3.27296 µM): -1.45 ± 0.089%; LDH release cytotoxicity (10.35 µM): -1.29 ± 0.7%; LDH release cytotoxicity (32.729574 µM): -1.58 ± 0.37%; LDH release cytotoxicity (103.5 µM): -0.99 ± 0.68%
11 | CCCCCCOCCO [2-Hexyloxyethanol] | -0.677 ± 0.42 | -1.05 ± 0.26 | -0.605 ± 0.04 | -0.402 ± 0.99 | -1.19 ± 0.28 | 0.932 ± 0.059 | 0.572 ± 0.76 | 47.6 ± 2.2 | –
12 | Sc1nc2ccccc2s1 [2-Mercaptobenzothiazole] | -0.515 ± 0.59 | 0.0327 ± 0.27 | -0.565 ± 1.2 | -0.708 ± 0.47 | 0.4 ± 0.3 | 0.658 ± 0.27 | 1.05 ± 0.11 | 3.61 ± 0.18 | –
13 | COc1ccc(C)cc1N [2-Methoxy-5-methylaniline] | -1.46 ± 2 | -3.72 ± 0.18 | -3.46 ± 0.056 | -4.05 ± 0.41 | -3.672 ± 0.029 | -4.54 ± 1.1 | -2.55 ± 0.51 | 14.6 ± 1.5 | –
14 | COCCO [2-Methoxyethanol] | -2.71 ± 0.16 | -2.42 ± 0.11 | -1.84 ± 0.67 | -2.08 | -2.13 ± 0.46 | -1.562 ± 0.005 | 0.278 ± 0.11 | 2.52 ± 0.4 | –
15 | CC(O)CC(C)(C)O (configuration not stated) [2-Methyl-2,4-pentanediol] | -1.84 ± 0.52 | -2.18 ± 0.3 | -2.81 ± 0.68 | -2.8 ± 1.5 | -2.62 ± 0.7 | -2.46 ± 1 | -2.69 ± 1.3 | -0.649 ± 1.4 | –
16 | Cc1ccccc1N [2-Methylaniline] | -1.2 ± 0.49 | -0.736 ± 0.52 | -0.698 ± 0.12 | -0.759 ± 0.47 | -1.37 ± 0.23 | -0.264 ± 0.12 | -0.213 ± 0.19 | 0.285 ± 0.61 | –
17 | Oc1ccc2ccccc2c1 [2-Naphthalenol] | -0.471 ± 0.51 | -0.55 ± 0.25 | -0.787 ± 0.15 | -0.57 ± 0.2 | -0.679 ± 0.39 | -0.106 ± 0.093 | 0.851 ± 0.3 | 13.8 ± 0.73 | –
18 | Nc1ccc2ccccc2c1 [2-Naphthylamine] | -1.06 ± 0.22 | -1.31 ± 0.37 | -0.801 ± 0.7 | -1.43 ± 0.78 | -1.16 ± 0.89 | -0.463 ± 0.054 | 0.128 ± 0.57 | 0.14 ± 0.74 | –
19 | Cc1ccccc1[N+](=O)[O-] [2-Nitrotoluene] | – | – | – | – | – | – | – | – | LDH release cytotoxicity (0.0324133 µM): -0.207 ± 0.0063%; LDH release cytotoxicity (0.1025 µM): -0.999 ± 0.6%; LDH release cytotoxicity (0.324134 µM): -0.895 ± 0.32%; LDH release cytotoxicity (1.025 µM): -1.29 ± 0.7%; LDH release cytotoxicity (3.24133 µM): -0.412 ± 0.16%; LDH release cytotoxicity (10.25 µM): 0.00334 ± 0.67%; LDH release cytotoxicity (32.4133 µM): 0.414 ± 0.41%; LDH release cytotoxicity (102.5 µM): 1.14 ± 0.065%

Reference: the supplement of paper PMC7840683
